Among the data in US8399436B2, “N-pyrazolyl carboxamides as CRAC channel inhibitors” (Glaxo Group Limited, priority 2009, dated 2013) are pIC50 values, retold here.

The target of this test is ICRAC current (calcium release activated calcium channel) (Homo sapiens, UniProt Q96D31). The format is cell-based. The conditions noted are these: Jurkat E6-1 cells; at a final assay concentration of 15 μM.

Structures can show the parent of a compound that is named as a salt.

Chain of ICRAC current (calcium release activated calcium channel) (Q96D31 whole entry): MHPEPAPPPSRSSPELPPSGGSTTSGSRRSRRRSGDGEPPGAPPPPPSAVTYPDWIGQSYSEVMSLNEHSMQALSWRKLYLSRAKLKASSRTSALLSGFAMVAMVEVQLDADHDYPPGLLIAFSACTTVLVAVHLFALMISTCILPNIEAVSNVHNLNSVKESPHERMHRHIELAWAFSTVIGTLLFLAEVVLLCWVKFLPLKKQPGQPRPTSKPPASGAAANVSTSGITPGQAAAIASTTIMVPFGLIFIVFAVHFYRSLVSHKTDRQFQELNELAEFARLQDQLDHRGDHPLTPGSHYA
Chain of ICRAC current (calcium release activated calcium channel) (Q13586 23-685, further chain): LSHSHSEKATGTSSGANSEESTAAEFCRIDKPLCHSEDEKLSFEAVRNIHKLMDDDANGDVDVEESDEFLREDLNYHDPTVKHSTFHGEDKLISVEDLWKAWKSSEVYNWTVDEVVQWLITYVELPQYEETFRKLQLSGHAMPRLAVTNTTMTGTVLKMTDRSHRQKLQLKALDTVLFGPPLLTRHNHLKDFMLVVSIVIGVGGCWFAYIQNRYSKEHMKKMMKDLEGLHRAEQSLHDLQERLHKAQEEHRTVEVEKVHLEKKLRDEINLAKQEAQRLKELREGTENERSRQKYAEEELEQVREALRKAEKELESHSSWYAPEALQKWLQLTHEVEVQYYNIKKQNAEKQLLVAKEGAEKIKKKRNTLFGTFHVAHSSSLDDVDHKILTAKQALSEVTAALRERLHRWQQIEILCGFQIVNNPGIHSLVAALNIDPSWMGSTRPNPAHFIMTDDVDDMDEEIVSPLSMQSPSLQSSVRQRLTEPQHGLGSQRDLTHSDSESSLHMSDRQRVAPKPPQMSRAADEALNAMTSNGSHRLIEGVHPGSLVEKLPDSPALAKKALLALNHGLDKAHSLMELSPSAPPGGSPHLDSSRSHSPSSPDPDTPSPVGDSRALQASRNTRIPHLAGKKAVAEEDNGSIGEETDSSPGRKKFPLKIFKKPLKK
Description: This ICRAC assay uses the SERCA inhibitor thapsigargin to produce calcium depletion and activate an ICRAC current. […] Changes in intracellular calcium levels are determined by the inclusion of the calcium sensitive fluorescent dye Fluo-4 and the use of the FLIPR detection system. Inhibitors of ICRAC would be expected to decrease the calcium influx upon calcium add-back, thus reducing fluorescent signal.
Jurkat E6-1 is an established immortalised T lymphocyte cell line previously shown to express a functional ICRAC current. Jurkat cells grow in suspension, are cultured in DMEM+10% FBS, maintained in T175 flasks at 37° C./5% CO2, and are subcultured twice a week with either 1:10-1:20 splits. 1 confluent T175 yields 100 ml of approximately 2×10^6 cells/ml.
Loading buffer contains; NaCl 145 mM, KCl 2.5 mM, HEPES 10 mM, Glucose 10 mM, MgCl2 1.2 mM, made up with water, then pH adjusted to 7.4 using NaOH 1 M. Finally Fluo-4AM & brilliant black are added to give a final assay concentration of 2 μM and 250 μM respectively.
The required seeding density for a 384 plate is 20,000 cells per well. […] Plates are then transferred to the FLIPR which initially measures baseline fluorescence, followed by any increase in fluorescence evoked by the online addition of a 6 mM (1.2 mM FAC) calcium solution. […]

Regarding `O=C(c1c(F)cccc1F)N(COP(=O)(O)O)c1ccn(Cc2c(F)cccc2C(F)(F)F)n1` [Example 187, [[(2,6-Difluorophenyl)carbonyl](1-{[2-fluoro-6-(trifluoromethyl)phenyl]methyl}-1H-pyrazol-3-yl)amino]methyl dihydrogen phosphate disodium salt], the pIC50 (as a rule, −log10 of the IC50, conventionally taken in molar units) is less than 4.8.
The value for `O=C(Nc1ccn(Cc2ccc(OP(=O)([O-])[O-])cc2C(F)(F)F)n1)c1c(F)cccc1F.[Na+].[Na+]` [Example 186, 4-[(3-{[(2,6-Difluorophenyl)carbonyl]amino}-1H-pyrazol-1-yl)methyl]-3-(trifluoromethyl)phenyl dihydrogen phosphate disodium salt] was 4.9.
